Legend:
Type in all cases: in vivo
Veronica persica = test: Test Example 4: herbicidal effect by soil treatment (symbol R)
In short: (§1)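 Seeds were sown in sterilized diluvial soil, covered with about 1.5 cm of soil, and the soil surface was sprayed with a water-diluted emulsion of the compound at a predetermined rate. Plants grew in a greenhouse at 25° C. to 30° C.; effects were scored visually 3 weeks after application.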

[1] = test system: Echinochloa oryzacola Vasing.; test: Test Example 2: herbicidal activity, application during weed generation in submerged conditions (symbol A); conditions: Table 23, grade 0-5 by criteria of Test Example 1
In short: (§2)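 Visual herbicidal ratings, taken three weeks after dosing, reflect post-emergence water-surface application to seedlings at one to two leaves. Conditions: co-sown weeds in alluvial soil flooded to 4 cm, greenhouse held at 25° C. to 30° C.; compound given as water-diluted emulsion at a fixed herbicide amount.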

Avena fatua = test: Test Example 4: herbicidal effect by soil treatment (symbol I)
In short: as §1

Apera spica-venti [2] = test: Test Example 5: herbicidal effect by foliage application, plastic box (symbol L); conditions: 3 weeks after application
In short: (§3)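 Herbicide, formulated as an emulsion and diluted in water, is sprayed onto the aerial parts of 14-day seedlings. These were grown at 25° C. to 30° C. in sterilized diluvial soil; effects are graded after 3 weeks.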

Scirpus juncoides [3] = test: Test Example 2: herbicidal activity, application during weed generation in submerged conditions (symbol B); conditions: Table 23, grade 0-5 by criteria of Test Example 1
In short: as §2

Alopecurus myosuroides [4] = test: Test Example 4: herbicidal effect by soil treatment (symbol J)
In short: as §1

corn = test: Test Example 5: effect on crop by foliage application, plastic box (symbol c); conditions: 3 weeks after application
In short: (§4)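 Soil: sterilized diluvial. Container: plastic box, 21 × 13 cm, 7 cm deep. Sowing: spot-like, ~1.5 cm cover. Growth: greenhouse, 25° C. to 30° C.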

Abutilon theophrasti = test: Test Example 4: herbicidal effect by soil treatment (symbol M)
In short: as §1

Scirpus juncoides [5] = test: Test Example 1: herbicidal activity, application before weed generation in submerged conditions (symbol B)
In short: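 Pre-emergence, paddy conditions: emulsifiable formulation diluted in water, dosed onto floodwater (4 cm depth) on sowing day. Alluvial soil; weeds sown mixed; rice transplanted at 2.5-leaf stage. Greenhouse 25–30 °C, 3 wk. Score 0–5 (5 = ≥90% kill, 0 = ≤5%).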

Alopecurus myosuroides [6] = test: Test Example 5: herbicidal effect by foliage application, plastic box (symbol J); conditions: 3 weeks after application
In short: as §3

[7] = test system: Echinochloa crus-galli var. crus-galli; test: Test Example 3: herbicidal effect by foliage application, Wagner pot (symbol H)
In short: (§5)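 Herbicidal activity was rated three weeks after a foliar spray of diluted emulsion concentrate, applied at a predetermined dose to plants grown for 14 days from seed in waterlogged alluvial soil within a 25–30 °C greenhouse.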

Apera spica-venti [8] = test: Test Example 4: herbicidal effect by soil treatment (symbol L)
In short: as §1

Setaria viridis = test: Test Example 4: herbicidal effect by soil treatment (symbol G)
In short: as §1

Cyperus difformis = test: Test Example 3: herbicidal effect by foliage application, Wagner pot (symbol E)
In short: as §5

rapeseed = test: Test Example 5: effect on crop by foliage application, plastic box (symbol g); conditions: 3 weeks after application
In short: as §4

[9] = application herbicide amount 320 g/ha
[10] = application herbicide amount 320 g/ha, Table 24
[11] = application herbicide amount 192 g/ha

| Structure (SMILES) | Herbicidal effect grade, A: Echinochloa oryzacola Vasing. [1, 9] | Herbicidal effect grade, B: Scirpus juncoides (Scirpus juncoides [3]; [9]) | R: Veronica persica, herbicidal effect grade (Veronica persica; 320 g/ha) | I: Avena fatua, herbicidal effect grade (Avena fatua; 320 g/ha) | L: Apera spica-venti, herbicidal effect (criteria 0-5) (Apera spica-venti [2]; 320 g/ha) | J: Alopecurus myosuroides, herbicidal effect grade (Alopecurus myosuroides [4]; 320 g/ha) | c: corn, effect on crop (criteria 0-5) (corn; 320 g/ha) | M: Abutilon theophrasti, herbicidal effect grade (Abutilon theophrasti; 320 g/ha) | Herbicidal effect grade, B: Scirpus juncoides (Scirpus juncoides [5]; [9]) | J: Alopecurus myosuroides, herbicidal effect (criteria 0-5) (Alopecurus myosuroides [6]; 320 g/ha) | herbicidal effect on H (Echinochloa crus-galli var. crus-galli), grade 0-5 [7, 9] | L: Apera spica-venti, herbicidal effect grade (Apera spica-venti [8]; 320 g/ha) | G: Setaria viridis, herbicidal effect grade (Setaria viridis; 320 g/ha) | herbicidal effect on E, grade 0-5 (Cyperus difformis; [9]) | g: rapeseed, effect on crop (criteria 0-5) (rapeseed; 320 g/ha) | further results |
| --- | --- | --- | --- | --- | --- | --- | --- | --- | --- | --- | --- | --- | --- | --- | --- | --- |
| COCCON=C(C)CC1CC(O)=C(c2c(C)cc(Br)cc2C)C1=O (stereo not drawn) [9-017] | 1 (Herbicidal ratio of 5% or higher and lower than 20%) | 0 (Herbicidal ratio of 5% or lower (almost no effect)) |  |  |  |  |  |  |  |  |  |  |  |  |  | Herbicidal effect grade, R: Veronica persica (Veronica persica; [9]): 0 (Herbicidal ratio of 5% or lower (almost no effect)); Herbicidal effect grade, I: Avena fatua (Avena fatua; [9]): 0 (Herbicidal ratio of 5% or lower (almost no effect)); L: Apera spica-venti, herbicidal effect grade (Apera spica-venti [2]; 320 g/ha): 3 (Herbicidal ratio of 40% or higher and lower than 70%); Herbicidal effect grade, J: Alopecurus myosuroides (Alopecurus myosuroides [4]; [9]): 0 (Herbicidal ratio of 5% or lower (almost no effect)); c: corn, effect on crop grade (corn; 320 g/ha): 5 (Herbicidal ratio of 90% or more (almost completely withered)); Herbicidal effect grade, M: Abutilon theophrasti (Abutilon theophrasti; [9]): 0 (Herbicidal ratio of 5% or lower (almost no effect)); B (Scirpus juncoides) herbicidal effect grade (Scirpus juncoides [5]; [9]): 2 (Herbicidal ratio of 20% or higher and lower than 40%); J: Alopecurus myosuroides, herbicidal effect grade (Alopecurus myosuroides [6]; 320 g/ha): 3 (Herbicidal ratio of 40% or higher and lower than 70%); H (Echinochloa crus-galli var. crus-galli) herbicidal effect grade [7, 10]: 5 (Herbicidal ratio of 90% or more (almost completely withered)); Herbicidal effect grade, L: Apera spica-venti (Apera spica-venti [8]; [9]): 0 (Herbicidal ratio of 5% or lower (almost no effect)); Herbicidal effect grade, G: Setaria viridis (Setaria viridis; [9]): 0 (Herbicidal ratio of 5% or lower (almost no effect)); E herbicidal effect grade (Cyperus difformis; [10]): 3 (Herbicidal ratio of 40% or higher and lower than 70%); g: rapeseed, effect on crop grade (rapeseed; 320 g/ha): 3 (Herbicidal ratio of 40% or higher and lower than 70%) |
| CON=C(C)CC1CC(OC(=O)N(C)C)=C(c2c(C)cc(C)cc2C)C1=O (stereo not drawn) [1-108] | 5 (Herbicidal ratio of 90% or more (almost completely withered)) | 3 (Herbicidal ratio of 40% or higher and lower than 70%) | 0 (Herbicidal ratio of 5% or lower (almost no effect)) | 3 (Herbicidal ratio of 40% or higher and lower than 70%) | 5 (Herbicidal ratio of 90% or more (almost completely withered)) | 5 (Herbicidal ratio of 90% or more (almost completely withered)) | 5 (Herbicidal ratio of 90% or more (almost completely withered)) | 4 (Herbicidal ratio of 70% or higher and lower than 90%) | 4 (Herbicidal ratio of 70% or higher and lower than 90%) | 5 (Herbicidal ratio of 90% or more (almost completely withered)) | 5 (Herbicidal ratio of 90% or more (almost completely withered)) | 5 (Herbicidal ratio of 90% or more (almost completely withered)) | 5 (Herbicidal ratio of 90% or more (almost completely withered)) | 5 (Herbicidal ratio of 90% or more (almost completely withered)) | 4 (Herbicidal ratio of 70% or higher and lower than 90%) |  |
| CON=C(C)CC1CC(OC(=O)c2cc(C)on2)=C(c2c(C)cc(C)cc2C)C1=O (stereo not drawn) [1-100] | 5 (Herbicidal ratio of 90% or more (almost completely withered)) | 5 (Herbicidal ratio of 90% or more (almost completely withered)) | 1 (Herbicidal ratio of 5% or higher and lower than 20%) | 3 (Herbicidal ratio of 40% or higher and lower than 70%) | 5 (Herbicidal ratio of 90% or more (almost completely withered)) | 5 (Herbicidal ratio of 90% or more (almost completely withered)) | 5 (Herbicidal ratio of 90% or more (almost completely withered)) | 4 (Herbicidal ratio of 70% or higher and lower than 90%) | 5 (Herbicidal ratio of 90% or more (almost completely withered)) | 5 (Herbicidal ratio of 90% or more (almost completely withered)) | 5 (Herbicidal ratio of 90% or more (almost completely withered)) | 5 (Herbicidal ratio of 90% or more (almost completely withered)) | 5 (Herbicidal ratio of 90% or more (almost completely withered)) | 5 (Herbicidal ratio of 90% or more (almost completely withered)) | 5 (Herbicidal ratio of 90% or more (almost completely withered)) |  |
| CON=C(C)CC1CC(OC(=O)C2CCCO2)=C(c2c(C)cc(C)cc2C)C1=O (stereo not drawn) [1-076] |  |  |  |  |  |  |  |  |  |  |  |  |  |  |  | R: Veronica persica, herbicidal effect grade (Veronica persica; 192 g/ha): 0 (Herbicidal ratio of 5% or lower (almost no effect)); Herbicidal effect grade, A: Echinochloa oryzacola Vasing. [1, 11]: 5 (Herbicidal ratio of 90% or more (almost completely withered)); I: Avena fatua, herbicidal effect grade (Avena fatua; 192 g/ha): 4 (Herbicidal ratio of 70% or higher and lower than 90%); L: Apera spica-venti, herbicidal effect (criteria 0-5) (Apera spica-venti [2]; 192 g/ha): 5 (Herbicidal ratio of 90% or more (almost completely withered)); Herbicidal effect grade, B: Scirpus juncoides (Scirpus juncoides [3]; [11]): 4 (Herbicidal ratio of 70% or higher and lower than 90%); J: Alopecurus myosuroides, herbicidal effect grade (Alopecurus myosuroides [4]; 192 g/ha): 4 (Herbicidal ratio of 70% or higher and lower than 90%); c: corn, effect on crop (criteria 0-5) (corn; 192 g/ha): 4 (Herbicidal ratio of 70% or higher and lower than 90%); M: Abutilon theophrasti, herbicidal effect grade (Abutilon theophrasti; 192 g/ha): 4 (Herbicidal ratio of 70% or higher and lower than 90%); Herbicidal effect grade, B: Scirpus juncoides (Scirpus juncoides [5]; [11]): 4 (Herbicidal ratio of 70% or higher and lower than 90%); J: Alopecurus myosuroides, herbicidal effect (criteria 0-5) (Alopecurus myosuroides [6]; 192 g/ha): 5 (Herbicidal ratio of 90% or more (almost completely withered)); herbicidal effect on H (Echinochloa crus-galli var. crus-galli), grade 0-5 [7, 11]: 5 (Herbicidal ratio of 90% or more (almost completely withered)); L: Apera spica-venti, herbicidal effect grade (Apera spica-venti [8]; 192 g/ha): 5 (Herbicidal ratio of 90% or more (almost completely withered)); G: Setaria viridis, herbicidal effect grade (Setaria viridis; 192 g/ha): 5 (Herbicidal ratio of 90% or more (almost completely withered)); herbicidal effect on E, grade 0-5 (Cyperus difformis; [11]): 5 (Herbicidal ratio of 90% or more (almost completely withered)); g: rapeseed, effect on crop (criteria 0-5) (rapeseed; 192 g/ha): 4 (Herbicidal ratio of 70% or higher and lower than 90%) |
